Where two headings read alike, the source gives them in different places.

One assay concerns the target T1, hα4β2 (Homo sapiens, UniProt P17787+P43681).
T1 construct: expressed in transfected cells; host or cells: HEK293 cells
Conditions: HEK293 cells; cited from earlier work.

The target of a further assay is T2, α4β2* nAChR (Rattus norvegicus, UniProt P09483+P12390).
T2 construct: Frozen rat brains were thawed slowly before the preparation of the P2 rat brain membrane fraction; from tissue; host or cells: rat brain (without cerebellum and medulla), P2 membrane fraction
T2 sequence (P12390 25-500): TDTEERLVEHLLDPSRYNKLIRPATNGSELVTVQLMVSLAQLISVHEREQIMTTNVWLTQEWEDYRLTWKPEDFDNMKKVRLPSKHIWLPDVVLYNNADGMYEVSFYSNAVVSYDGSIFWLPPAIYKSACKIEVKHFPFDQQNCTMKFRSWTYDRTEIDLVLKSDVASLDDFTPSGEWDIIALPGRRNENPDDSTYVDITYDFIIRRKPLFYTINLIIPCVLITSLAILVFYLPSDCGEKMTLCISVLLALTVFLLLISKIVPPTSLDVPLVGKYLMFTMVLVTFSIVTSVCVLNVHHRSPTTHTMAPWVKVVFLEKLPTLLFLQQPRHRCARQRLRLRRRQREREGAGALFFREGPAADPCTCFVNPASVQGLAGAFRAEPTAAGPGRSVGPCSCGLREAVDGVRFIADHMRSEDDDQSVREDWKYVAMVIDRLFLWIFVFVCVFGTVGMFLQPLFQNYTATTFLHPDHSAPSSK
T2 sequence (P09483 31-630): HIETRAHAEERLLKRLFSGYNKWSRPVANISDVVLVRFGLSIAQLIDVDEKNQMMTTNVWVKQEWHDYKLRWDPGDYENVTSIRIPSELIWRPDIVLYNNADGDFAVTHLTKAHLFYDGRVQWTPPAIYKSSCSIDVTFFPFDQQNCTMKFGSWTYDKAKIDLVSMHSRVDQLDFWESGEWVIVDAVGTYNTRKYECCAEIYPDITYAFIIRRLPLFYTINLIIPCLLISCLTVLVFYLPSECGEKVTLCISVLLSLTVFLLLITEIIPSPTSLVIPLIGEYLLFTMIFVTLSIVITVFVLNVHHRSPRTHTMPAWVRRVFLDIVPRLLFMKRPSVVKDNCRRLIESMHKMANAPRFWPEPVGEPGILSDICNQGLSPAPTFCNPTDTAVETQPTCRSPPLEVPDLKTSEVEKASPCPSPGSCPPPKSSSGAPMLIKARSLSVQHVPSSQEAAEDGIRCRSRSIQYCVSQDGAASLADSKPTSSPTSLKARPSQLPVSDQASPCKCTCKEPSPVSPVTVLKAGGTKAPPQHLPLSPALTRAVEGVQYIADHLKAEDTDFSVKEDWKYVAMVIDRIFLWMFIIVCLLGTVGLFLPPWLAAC
The assay can be described thus: biochemical. The class given is binding. The protocol: (§1) Preparation of Rat Brains
(§2) Frozen rat brains were thawed slowly before the preparation of the P2 rat brain membrane fraction (30-60 min on ice, afterwards at room temperature). […] After the determination of the wet weight (1.32 g on average), the brains were pressed into a pulp using a syringe and homogenised in saccharose buffer with a glass teflon homogenizator (Potter, 10 seconds). The tissue was then centrifuged (1,000×g, 20 min, 4° C.), the supernatant (S1) aspirated with a Pasteur pipette and stored on ice. The P1 pellet was re-suspended in saccharose buffer and the centrifugation was repeated. The supernatant S1′ was collected and added to the supernatant S1. The combined supernatants were centrifuged (25,000×g, 20 min, 4° C.), the supernatant S2 was removed and the pellet P2 collected and diluted with HSS-buffer. The buffer volume added was calculated on the basis of the wet weight in a ratio 1:2.
(§3) The final pellet was stored in aliquots at −80° C. On the day of the experiment, the P2 membrane fraction was thawed, diluted with HSS-buffer (30-fold volume), homogenised and centrifuged (35,000×g, 10 min, 4° C.). The collected pellet was suspended in HSS-buffer and used in the radioligand binding experiments.
Competition Assay Using (±)-[^3H]Epibatidine ([^3H]Epi) and Rat Brain P2-Fraction (α4β2*nAChR)
(§4) A dilution row of 6-9 concentrations of the test compound was prepared. Each assay sample, with a total volume of 500 μL contained 100 μL of the membrane protein (60 μg), 100 μL of (±)-[^3H]epibatidine (0.5 nM), 100 μL of HSS-buffer and 200 μL of the test compound Non-specific binding was determined in the presence of 300 μM (−)-nicotine tartrate salt. The samples were homogenised and incubated for 90 min at 22° C. The incubation was terminated by vacuum filtration through glass fibre filters pre-soaked in 1% poly(ethyleneimine). The filter were rinsed three times with TRIS-buffer, punched out and transferred into 4 mL scintillation vials. The scintillation vials were filled with scintillation cocktail (2 mL) and the radioactivity was measured using a liquid scintillation counter.
Assays were carried out in duplicate, triplicates or quadruplicates.
(§5) Biological evaluation of the compounds on various nicotinic actylcholine receptors (nAChRs) was conducted with cells described below. […] Functional agonist activity of the cytisines in cells using a fluorescence assay sensitive to changes in cytosolic calcium.

The target of a further assay is T3, α7* nAChR (Rattus norvegicus, UniProt Q05941).
T3 construct: Frozen rat brains were thawed slowly before the preparation of the P2 rat brain membrane fraction; from tissue; host or cells: rat brain P2 membrane fraction
T3 sequence (Q05941 23-502): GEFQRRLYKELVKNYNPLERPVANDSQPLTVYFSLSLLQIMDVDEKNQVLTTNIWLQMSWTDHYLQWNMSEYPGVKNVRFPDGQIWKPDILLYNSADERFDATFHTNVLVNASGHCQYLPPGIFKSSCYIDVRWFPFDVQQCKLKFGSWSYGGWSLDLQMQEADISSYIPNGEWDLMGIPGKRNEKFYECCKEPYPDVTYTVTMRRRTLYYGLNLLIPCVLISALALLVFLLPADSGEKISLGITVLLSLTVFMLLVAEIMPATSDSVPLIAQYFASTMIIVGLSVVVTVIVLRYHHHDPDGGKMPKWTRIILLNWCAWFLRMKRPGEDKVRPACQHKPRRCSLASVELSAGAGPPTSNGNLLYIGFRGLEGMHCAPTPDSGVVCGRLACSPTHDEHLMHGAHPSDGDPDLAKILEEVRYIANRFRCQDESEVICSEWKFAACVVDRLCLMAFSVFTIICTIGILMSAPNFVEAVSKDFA
The assay is described as follows: Competition assay using [3H]methyllycaconitine and rat brain P2-fraction. The conditions noted are these: preliminary results; read-out: α7* [3H]MLA rat brain Ki. Format: binding. The protocol:
as §1, §2, §3
Competition Assay Using [^3H]Methyllycaconitine ([^3H]MLA) and Rat Brain P2-Fraction (α7*nAChR)
A dilution row of 6-9 concentrations of the test compound was prepared. Each assay sample, with a total volume of 250 μL contained 50 μL of the test compound, 100 μL of [^3H]MLA and 100 μL of the P2-membrane protein fraction (60-70 μg). Non-specific binding was determined in the presence of 1 μM MLA. The samples were homogenised and incubated for 120 min at 22° C. The incubation was terminated by vacuum filtration through glass fibre filters pre-soaked in 1% poly(ethyleneimine). The filters were rinsed three times with TRIS-buffer, punched out and transferred into 4 mL scintillation vials. The scintillation vials were filled with scintillation cocktail (2 mL) and the radioactivity was measured using a liquid scintillation counter.
Assays were carried out in duplicates, triplicates or quadruplicates.

In a further assay the target is T4, α3β4* nAChR (Bos taurus, UniProt Q07263+Q8SPU6).
T4 construct: 100 μL of the calf adrenal membrane protein fraction (60-70 μg); from tissue; host or cells: calf adrenals, membrane fraction
T4 sequence (Q07263 22-495): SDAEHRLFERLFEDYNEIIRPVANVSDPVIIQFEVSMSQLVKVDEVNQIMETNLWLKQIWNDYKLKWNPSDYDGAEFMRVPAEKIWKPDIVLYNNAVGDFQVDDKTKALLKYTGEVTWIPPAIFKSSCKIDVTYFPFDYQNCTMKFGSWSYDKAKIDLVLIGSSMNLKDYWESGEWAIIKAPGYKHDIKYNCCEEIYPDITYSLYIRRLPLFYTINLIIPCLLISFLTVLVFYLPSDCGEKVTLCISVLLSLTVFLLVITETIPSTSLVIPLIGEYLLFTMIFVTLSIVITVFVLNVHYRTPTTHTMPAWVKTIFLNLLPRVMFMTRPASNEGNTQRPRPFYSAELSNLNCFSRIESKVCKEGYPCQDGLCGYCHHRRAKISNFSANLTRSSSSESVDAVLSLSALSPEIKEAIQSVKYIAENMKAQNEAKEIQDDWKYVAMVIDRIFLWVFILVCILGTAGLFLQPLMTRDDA
T4 sequence (Q8SPU6 20-496): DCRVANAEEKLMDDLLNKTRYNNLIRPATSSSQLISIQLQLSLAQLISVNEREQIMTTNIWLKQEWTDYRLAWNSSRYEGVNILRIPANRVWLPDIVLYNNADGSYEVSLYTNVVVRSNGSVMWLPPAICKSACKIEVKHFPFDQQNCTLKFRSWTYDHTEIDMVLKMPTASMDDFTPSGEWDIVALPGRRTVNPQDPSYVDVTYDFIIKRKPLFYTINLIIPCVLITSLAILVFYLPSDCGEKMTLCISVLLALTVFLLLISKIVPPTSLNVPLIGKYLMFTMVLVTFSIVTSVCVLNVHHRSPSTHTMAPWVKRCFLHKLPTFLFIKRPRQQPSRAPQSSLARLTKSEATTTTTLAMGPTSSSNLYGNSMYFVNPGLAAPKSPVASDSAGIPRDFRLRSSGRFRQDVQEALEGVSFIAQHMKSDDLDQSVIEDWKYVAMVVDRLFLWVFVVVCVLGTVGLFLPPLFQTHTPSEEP
The assay is described as follows: biochemical. Format: binding, calf.

For a further assay, the target named is T5, (α1)2β1γδ nAChR (Tetronarce californica, UniProt P02710+P02714+P02718).
T5 construct: 100 μL of the Torpedo californica electroplax fraction (60-70 μg); from tissue; host or cells: Torpedo californica electric organ (electroplax) membranes
T5 sequence (P02710 25-461): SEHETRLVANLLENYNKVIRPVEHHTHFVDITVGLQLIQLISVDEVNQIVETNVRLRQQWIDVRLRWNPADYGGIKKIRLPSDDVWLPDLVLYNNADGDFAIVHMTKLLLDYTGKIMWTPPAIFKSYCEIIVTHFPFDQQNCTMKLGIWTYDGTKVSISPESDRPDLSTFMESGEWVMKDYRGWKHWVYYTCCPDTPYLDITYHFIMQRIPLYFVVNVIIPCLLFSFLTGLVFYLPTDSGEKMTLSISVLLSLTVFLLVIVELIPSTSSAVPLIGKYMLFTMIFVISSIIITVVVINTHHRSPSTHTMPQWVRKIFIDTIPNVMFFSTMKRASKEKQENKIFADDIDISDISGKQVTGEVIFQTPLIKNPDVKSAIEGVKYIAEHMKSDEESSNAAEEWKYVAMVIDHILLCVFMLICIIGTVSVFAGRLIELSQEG
T5 sequence (P02712 25-493, further chain): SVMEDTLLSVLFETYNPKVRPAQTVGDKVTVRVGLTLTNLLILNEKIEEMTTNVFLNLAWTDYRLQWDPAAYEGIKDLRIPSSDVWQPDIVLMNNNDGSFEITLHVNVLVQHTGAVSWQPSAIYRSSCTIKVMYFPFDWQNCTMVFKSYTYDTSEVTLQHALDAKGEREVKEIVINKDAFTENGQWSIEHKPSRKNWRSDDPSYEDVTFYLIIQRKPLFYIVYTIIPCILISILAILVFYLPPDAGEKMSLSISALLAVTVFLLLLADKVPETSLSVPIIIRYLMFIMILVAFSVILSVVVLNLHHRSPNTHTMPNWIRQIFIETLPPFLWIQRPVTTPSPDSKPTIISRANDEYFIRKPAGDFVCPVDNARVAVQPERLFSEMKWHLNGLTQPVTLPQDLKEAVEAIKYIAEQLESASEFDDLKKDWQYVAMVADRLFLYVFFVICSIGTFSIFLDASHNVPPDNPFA
T5 sequence (P02718 22-522): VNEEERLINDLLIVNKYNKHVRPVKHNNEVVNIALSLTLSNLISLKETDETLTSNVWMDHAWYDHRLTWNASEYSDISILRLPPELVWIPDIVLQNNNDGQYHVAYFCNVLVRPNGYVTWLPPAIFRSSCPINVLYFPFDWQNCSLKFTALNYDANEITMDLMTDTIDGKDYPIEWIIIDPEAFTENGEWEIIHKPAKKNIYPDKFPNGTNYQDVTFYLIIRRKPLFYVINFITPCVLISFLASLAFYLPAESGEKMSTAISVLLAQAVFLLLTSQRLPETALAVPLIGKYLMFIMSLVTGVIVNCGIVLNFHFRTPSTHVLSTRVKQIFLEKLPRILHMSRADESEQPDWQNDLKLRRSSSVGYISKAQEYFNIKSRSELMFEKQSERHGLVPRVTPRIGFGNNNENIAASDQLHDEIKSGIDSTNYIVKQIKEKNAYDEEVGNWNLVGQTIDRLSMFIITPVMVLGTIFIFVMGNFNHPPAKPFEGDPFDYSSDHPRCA
T5 sequence (P02714 18-506): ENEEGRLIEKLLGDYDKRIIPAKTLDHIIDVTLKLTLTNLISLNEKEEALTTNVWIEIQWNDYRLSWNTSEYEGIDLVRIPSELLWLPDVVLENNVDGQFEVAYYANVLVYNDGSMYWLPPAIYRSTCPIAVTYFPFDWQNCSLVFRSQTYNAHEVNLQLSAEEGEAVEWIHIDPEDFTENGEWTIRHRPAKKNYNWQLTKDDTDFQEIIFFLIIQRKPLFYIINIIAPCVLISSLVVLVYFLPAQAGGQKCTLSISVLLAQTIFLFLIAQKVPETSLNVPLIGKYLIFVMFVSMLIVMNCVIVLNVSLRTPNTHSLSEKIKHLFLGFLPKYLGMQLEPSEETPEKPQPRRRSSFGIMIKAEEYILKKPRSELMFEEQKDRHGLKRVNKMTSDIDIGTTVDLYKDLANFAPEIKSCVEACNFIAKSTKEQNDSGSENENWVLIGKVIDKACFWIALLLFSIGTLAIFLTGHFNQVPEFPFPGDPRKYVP
The assay can be described thus: biochemical. The class given is binding, Torpedo californica. As for the experimental part:
Preparation of Torpedo californica Electroplax
Frozen samples of Torpedo californica electric organ (−80° C.) were placed on ice for 30-60 min and allowed to thaw slowly before the membrane preparation. The tissue was homogenised in an ice-cold HSS-buffer (Ultraturrax at 750 rpm) and centrifuged (30,000×g, 10 min, 4° C.). The pellets were collected, washed four times with HSS-buffer through re-homogenization and centrifugation at the same settings. The remaining pellets were collected, re-suspended in HSS and stored in aliquots at −80° C.
One hour before the experiments the tissues were slowly thawed, homogenised in HSS-buffer and centrifuged (25,000×g, 20 min, 4° C.). The pellets were re-suspended in fresh HSS-buffer and used for radioligand binding assays.
Competition Assay Using (±)-[^3H]Epibatidine ([^3H]Epi) and Torpedo californica Electroplax ((α1)2β1γδ nAChR)
as §4, with “μL contained 200 μL” for “μL contained 100 μL of the membrane protein (60 μg), 100 μL of (±)-[^3H]epibatidine (0.5 nM), 100 μL of HSS-buffer and 200 μL”, “the test compound, 100 μL of (±)-[^3H]epibatidine and 100 μL of the Torpedo californica electroplax fraction (60-70 μg). Non-specific binding” for “the test compound Non-specific binding”, “poly(ethyleneimine). The filters were rinsed” for “poly(ethyleneimine). The filter were rinsed”
Assays were carried out in duplicates, triplicate or quadruplicates.
as §5

In assay [1] the test system is C57BL/6J male mice. Format: in vivo. An excerpt:
Subjects were 12-week old male C57BL/6J mice (The Jackson Laboratory, Bar Harbor Me.). Subjects were housed 5 per cage under standardized conditions (12:12 light cycle with lights on at 7:00 am) and were allowed at least 7 days of rest before testing. Food and water were available ad libitum.
Placebo cage-mate controls received an injection of saline.
The tail suspension test took place between 2:00 pm and 5:00 pm. […] Immediately after injection, each animal was placed in a clean cage and transferred to the testing room.
Approximately 1 cm from the end, each mouse's tail was taped (Scotch 35 Vinyl Electrical Tape) to a paperclip. Mice were suspended by the tail approximately 80 cm above the floor and the duration of immobility, defined as the absence of all movement except for those required for respiration, was recorded by an observer for 6 minutes. The animals were then returned to the holding room.

The test system of assay [2] is C57BL/6J male mice. Conditions: acute i.p. injection of cytisine, FIG. 1.
Experimental: C57BL/6J male mice, 34 months of age were used in these experiments. […] At 15 minutes, the mice were subject to a forced swim test (FST) and a recorded of immobility (time and patters) was provided. Control behavior was provided by testing locomotor activity at 20 minutes in an open field.
The subject of assay [3] is C57BL/6J male mice. The conditions noted are these: 21 days i.p. treatment, 24 hour food deprivation, FIG. 1.
Experimental: A novelty-suppressed feeding test (NSFT) was conducted consisting of a 24 hour food deprivation, and a recording of the time to initiate a first feeding episode in an open-field, with controls for appetite and motivation (measure of weight loss and food intake).
The test system of another assay is c-fos. Conditions: brain regions, FIG. 2.
Assay [4] has as its system C57BL/6J male mice. The conditions noted are these: cytisine + 5HT1A/7 agonist 8OHDPAT.

Experimental for α3β4* nAChR: Preparation of Calf Adrenals
Frozen calf adrenals (−80° C.) were placed on ice for 30-60 min and allowed to thaw slowly before they were cut into small pieces. After determination of the wet weight (4-6 g), the tissue was homogenised in HSS-buffer (Ultraturrax at 750 rpm). The homogenate was centrifuged (30,000×g, 10 min, 4° C.), the pellets collected and washed. This procedure was repeated five times. The buffer volume used to re-suspend the pellets was calculated on the basis of the wet weight in a ratio 1:6.5.
The prepared tissues were stored in aliquots at −80° C. One hour before the experiments the tissues were slowly thawed, homogenised in HSS-buffer and centrifuged (25,000×g, 20 min, 4° C.). The pellets were re-suspended in fresh HSS-buffer and used for radioligand binding assays.
Competition Assay Using (±)-[^3H]Epibatidine ([^3H]Epi) and Calf Adrenals Membrane Fraction (α3β4*nAChR)
Each assay sample, with a total volume of 500 μL contained 200 μL of the test compound, 100 μL of (±)-[^3H]epibatidine, 100 μL of the calf adrenal membrane protein fraction (60-70 μg) and 100 μM of HSS-buffer. Non-specific binding was determined in the presence of 300 μM (−)-nicotine tartrate salt. The samples were homogenised and incubated for 90 min at 22° C. The incubation was terminated by vacuum filtration through glass fibre filters presoaked in 1% poly(ethyleneimine). The filters were rinsed three times with TRIS-buffer, punched out and transferred into 4 mL scintillation vials. The scintillation vials were filled with scintillation cocktail (2 mL) and the radioactivity was measured using a liquid scintillation counter.

`c1ccc(-c2ccc3c(c2)CC2CNCC3C2)cc1` (centres unmarked) [57j]: at hα4β2, the Ki was 500 nM.
As to `Nc1cccc(-c2ccc3c(c2)CC2CNCC3C2)c1` (centres unmarked) [57m], the Ki at hα4β2 was 500 nM.
With `O=c1ccc(-c2ccc3c(c2)OCO3)c2n1C[C@@H]1CNC[C@H]2C1` [124e, 5-(3′,4′-Methylenedioxy-phenyl)-cytisine], the inhibition constant Ki at α4β2* nAChR is 96 nM; at α7* nAChR, greater than 10000 nM; on α3β4* nAChR it was greater than 10000 nM; on (α1)2β1γδ nAChR it was greater than 10000 nM.
Regarding `O=c1ccc(-c2cccnc2)c2n1C[C@@H]1CNC[C@H]2C1` [125e, 5-(Pyridin-3′-yl)-cytisine], the inhibitory constant (Ki) on α4β2* nAChR was 10.9 nM; on α7* nAChR, greater than 10000 nM; on α3β4* nAChR, 4300 nM; at (α1)2β1γδ nAChR, greater than 10000 nM.
For `Cn1cc(-c2ccc(=O)n3c2[C@H]2CNC[C@H](C2)C3)cn1` [126e, 5-(1-Methyl-1H-pyrazol-4′-yl)-cytisine], the Ki on α4β2* nAChR was 2.2 nM; on α7* nAChR it was greater than 10000 nM; at α3β4* nAChR, 656 nM; on (α1)2β1γδ nAChR, greater than 10000 nM.
For `O=c1c(-c2ccccc2)cc(Br)c2n1C[C@@H]1CNC[C@H]2C1` [128e, 5-Bromo-3-phenyl-cytisine], the Ki on α4β2* nAChR is 131 nM; on α7* nAChR, greater than 10000 nM; at α3β4* nAChR, greater than 5000 nM; at (α1)2β1γδ nAChR, greater than 10000 nM.
With `O=c1c(-c2cccnc2)cc(Br)c2n1C[C@@H]1CNC[C@H]2C1` [129e, 5-Bromo-3-(pyridin-3′-yl)-cytisine], the inhibitory constant (Ki) at α4β2* nAChR was 92 nM; at α7* nAChR, greater than 10000 nM; on α3β4* nAChR it was greater than 2000 nM; on (α1)2β1γδ nAChR it was greater than 10000 nM.
On to `O=c1c(-c2cccnc2)ccc2n1CC1CNCC2C1` (centres unmarked) [compound 1], for which the “mean duration of immobility in tail suspension test” value in the assay with C57BL/6J male mice [1] (acute i.p., […] (1.5 mg/kg elsewhere in the source), 45 minutes after injection, vs saline, p=0.014, FIG. 3) was “significantly less mobile”.
Turning to `O=c1cccc2n1C[C@@H]1CNC[C@H]2C1` [compound 27, 1,2,3,4,5,6-hexahydro-1,5-methano-pyrido[1,2-a][1,5]diazocin-8-one], the figures for the Ki at α4β2* nAChR, on α3β4* nAChR and at (α1)2β1γδ nAChR were 0.122 nM, 19 nM and 1300 nM, respectively. Besides, the “immobility in tail suspension test” value in the assay on C57BL/6J male mice [1] (acute i.p. injection of cytisine, FIG. 1) was “generalized antidepressant-like profile”; with C57BL/6J male mice [1] (cytisine, doses lower than 1 mg/kg) it was “did not yield any significant effects”. In addition, in the assay with C57BL/6J male mice [2], the “immobility in forced swim test” value is reported as “generalized antidepressant-like profile”. Also, in the assay with C57BL/6J male mice [3], the “time to initiate first feeding episode in novelty-suppressed feeding test” value is “generalized antidepressant-like profile”. The “neuronal activity (c-fos immunostaining)” value with c-fos is “Reductions of neuronal activity in the amygdala, hypothalamus and in the nucleus accumbens”. Besides, in the assay with C57BL/6J male mice [4], the “potentiation of cytisine effects” value is given as “potentiation”.

The values above are taken from patent publication US20090318491A1 (priority 2006, published 2009).
